Measured values as given in PubChem BioAssay AID2060507 (Molecular Pharmacology Branch, DTP, NCI, 2025).

Test system: 519858-162-T-J1-PDC complex spheroid viability
Experiment: Anticancer human tumor 519858-162-T-J1-PDC patient-derived colon adenocarcinoma cell line growth inhibition [GQUAD]
Conditions: for IC50: curve of first compound; for viability, T/C: stronger effect = lower value
Procedure, shortened: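 Multi-cell-type spheroids of tumor cells with HUVEC and mesenchymal stem cells, treated with drug combinations. Concentrations descend in half-log steps from near clinical Cmax, or from 10 microM where Cmax is unknown; viability read-out.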

[1] = second compound 0.0316 µM, first compound 0.0316 µM
[2] = second compound 0.0316 µM, first compound 0.1 µM
[3] = second compound 0.0316 µM, first compound 0.316 µM
[4] = second compound 0.0316 µM, first compound 1 µM
[5] = second compound 0.0316 µM, first compound 3.16 µM
[6] = second compound 0.0316 µM, first compound 10 µM
[7] = second compound 0.1 µM, first compound 0.0316 µM
[8] = second compound 0.1 µM, first compound 0.1 µM
[9] = second compound 0.1 µM, first compound 0.316 µM
[10] = second compound 0.1 µM, first compound 1 µM
[11] = second compound 0.1 µM, first compound 3.16 µM
[12] = second compound 0.1 µM, first compound 10 µM
[13] = second compound 0.316 µM, first compound 0.0316 µM
[14] = second compound 0.316 µM, first compound 0.1 µM
[15] = second compound 0.316 µM, first compound 0.316 µM
[16] = second compound 0.316 µM, first compound 1 µM
[17] = second compound 0.316 µM, first compound 3.16 µM
[18] = second compound 0.316 µM, first compound 10 µM
[19] = second compound 1 µM, first compound 0.0316 µM
[20] = second compound 1 µM, first compound 0.1 µM
[21] = second compound 1 µM, first compound 0.316 µM
[22] = second compound 1 µM, first compound 1 µM
[23] = second compound 1 µM, first compound 3.16 µM
[24] = second compound 1 µM, first compound 10 µM
[25] = second compound 3.16 µM, first compound 0.0316 µM
[26] = second compound 3.16 µM, first compound 0.1 µM
[27] = second compound 3.16 µM, first compound 0.316 µM
[28] = second compound 3.16 µM, first compound 1 µM
[29] = second compound 3.16 µM, first compound 3.16 µM
[30] = second compound 3.16 µM, first compound 10 µM
[31] = second compound 10 µM, first compound 0.0316 µM
[32] = second compound 10 µM, first compound 0.1 µM
[33] = second compound 10 µM, first compound 0.316 µM
[34] = second compound 10 µM, first compound 1 µM
[35] = second compound 10 µM, first compound 3.16 µM
[36] = second compound 10 µM, first compound 10 µM
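Further: spheroids exposed to compounds for 7 days.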
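Wherever viability, T/C is given: 100% = DMSO vehicle control viability.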

C=CC(=O)N1CCN(c2nc(=O)n(-c3c(C)ccnc3C(C)C)c3nc(-c4c(O)cccc4F)c(F)cc23)C(C)C1 (centres undefined) + Cc1[nH]c2ccc(F)cc2c1-c1nc2c3cccnc3c3ncccc3c2[nH]1
IC50 (second compound 0.0316 µM): > 10 µM
IC50 (second compound 0.1 µM): > 10 µM
IC50 (second compound 0.316 µM): > 10 µM
IC50 (second compound 1 µM): > 10 µM
IC50 (second compound 3.16 µM): > 10 µM
IC50 (second compound 10 µM): < 0.0316 µM
viability, T/C [1]: 80.3%
viability, T/C [2]: 88.6%
viability, T/C [3]: 65.3%
viability, T/C [4]: 81.8%
viability, T/C [5]: 90.9%
viability, T/C [6]: 71.1%
viability, T/C [7]: 130%
viability, T/C [8]: 96.3%
viability, T/C [9]: 104%
viability, T/C [10]: 89.7%
viability, T/C [11]: 81.4%
viability, T/C [12]: 82.2%
viability, T/C [13]: 76.3%
viability, T/C [14]: 95.4%
viability, T/C [15]: 62.8%
viability, T/C [16]: 73%
viability, T/C [17]: 74.7%
viability, T/C [18]: 97.5%
viability, T/C [19]: 97.3%
viability, T/C [20]: 75.4%
viability, T/C [21]: 94.8%
viability, T/C [22]: 85.8%
viability, T/C [23]: 79.3%
viability, T/C [24]: 69.3%
viability, T/C [25]: 59.6%
viability, T/C [26]: 73.6%
viability, T/C [27]: 79.5%
viability, T/C [28]: 46.4%
viability, T/C [29]: 72.1%
viability, T/C [30]: 53.5%
viability, T/C [31]: 39.9%
viability, T/C [32]: 44%
viability, T/C [33]: 65.6%
viability, T/C [34]: 62.8%
viability, T/C [35]: 52.5%
viability, T/C [36]: 80.4%

C=CC(=O)N1CCN(c2nc(=O)n(-c3c(C)ccnc3C(C)C)c3nc(-c4c(O)cccc4F)c(F)cc23)C(C)C1 (centres undefined) + CN(C)c1ccc(Nc2c3ccc(NC(=O)CCN4CCCC4)cc3nc3cc(NC(=O)CCN4CCCC4)ccc23)cc1
IC50 (second compound 0.0316 µM): > 10 µM
IC50 (second compound 0.1 µM): > 10 µM
IC50 (second compound 0.316 µM): > 10 µM
IC50 (second compound 1 µM): > 10 µM
IC50 (second compound 3.16 µM): > 10 µM
IC50 (second compound 10 µM): < 0.0316 µM
viability, T/C [1]: 91.5%
viability, T/C [2]: 84.4%
viability, T/C [3]: 61.4%
viability, T/C [4]: 69.3%
viability, T/C [5]: 94%
viability, T/C [6]: 110%
viability, T/C [7]: 81.7%
viability, T/C [8]: 72.3%
viability, T/C [9]: 80.3%
viability, T/C [10]: 61.8%
viability, T/C [11]: 84.1%
viability, T/C [12]: 95.8%
viability, T/C [13]: 88.3%
viability, T/C [14]: 80.8%
viability, T/C [15]: 120%
viability, T/C [16]: 68.8%
viability, T/C [17]: 84%
viability, T/C [18]: 60.1%
viability, T/C [19]: 78.8%
viability, T/C [20]: 74.4%
viability, T/C [21]: 56.4%
viability, T/C [22]: 69.3%
viability, T/C [23]: 78.7%
viability, T/C [24]: 80.3%
viability, T/C [25]: 62.3%
viability, T/C [26]: 63.9%
viability, T/C [27]: 68.8%
viability, T/C [28]: 62.2%
viability, T/C [29]: 47.6%
viability, T/C [30]: 94.9%
viability, T/C [31]: 48.2%
viability, T/C [32]: 40.3%
viability, T/C [33]: 56.7%
viability, T/C [34]: 61.5%
viability, T/C [35]: 49.2%
viability, T/C [36]: 66.5%
